Data as given in the NIST ThermoML archive (doi:10.1016/j.tca.2016.05.007).
± gives the expanded uncertainty stated by the source.

Assay: molar heat capacity at constant pressure
Settings: 101.33 kPa, Small (less than 1 g) adiabatic calorimetry

COc1ccc(C2(c3ccc(OC)c(C)c3)OC(=O)c3ccccc32)cc1C [3,3-bis(4-methoxy-3-methylphenyl)-1(3H)-isobenzofuranone]
Settings | molar heat capacity at constant pressure [J/K/mol]
5.802 K, Glass | 2.967 ± 0.084
6.011 K, Crystal | 1.658 ± 0.053
6.232 K, Glass | 3.526 ± 0.096
6.486 K, Crystal | 2.176 ± 0.065
6.689 K, Glass | 4.234 ± 0.11
6.977 K, Crystal | 2.797 ± 0.078
7.179 K, Glass | 5.003 ± 0.13
7.498 K, Crystal | 3.461 ± 0.093
7.715 K, Glass | 5.872 ± 0.15
8.061 K, Crystal | 4.249 ± 0.11
8.282 K, Glass | 6.885 ± 0.17
8.65 K, Crystal | 5.21 ± 0.13
8.874 K, Glass | 8.044 ± 0.2
9.274 K, Crystal | 6.207 ± 0.15
9.483 K, Glass | 9.187 ± 0.22
9.939 K, Crystal | 7.418 ± 0.13
10.1 K, Glass | 10.44 ± 0.17
10.63 K, Crystal | 8.764 ± 0.15
10.73 K, Glass | 11.74 ± 0.19
11.34 K, Crystal | 10.21 ± 0.17
11.35 K, Glass | 13.13 ± 0.21
11.98 K, Glass | 14.45 ± 0.23
12.03 K, Crystal | 11.58 ± 0.18
12.62 K, Glass | 15.86 ± 0.24
12.71 K, Crystal | 13.08 ± 0.2
13.28 K, Glass | 17.41 ± 0.27
13.41 K, Crystal | 14.58 ± 0.23
13.96 K, Glass | 18.93 ± 0.28
14.13 K, Crystal | 16.23 ± 0.25
14.66 K, Glass | 20.58 ± 0.3
14.89 K, Crystal | 18.08 ± 0.27
15.39 K, Glass | 22.28 ± 0.33
15.68 K, Crystal | 19.91 ± 0.29
16.15 K, Glass | 24.12 ± 0.35
16.49 K, Crystal | 21.8 ± 0.31
16.94 K, Glass | 25.94 ± 0.37
17.04 K, Crystal | 22.93 ± 0.33
17.66 K, Glass | 27.62 ± 0.39
17.91 K, Crystal | 25.25 ± 0.35
18.49 K, Glass | 29.63 ± 0.41
18.78 K, Crystal | 27.27 ± 0.38
19.34 K, Glass | 31.77 ± 0.43
19.67 K, Crystal | 29.41 ± 0.4
20.21 K, Glass | 33.84 ± 0.45
20.58 K, Crystal | 31.37 ± 0.42
21.11 K, Glass | 35.96 ± 0.48
21.5 K, Crystal | 33.68 ± 0.44
22.03 K, Glass | 38.09 ± 0.5
22.45 K, Crystal | 35.73 ± 0.46
23 K, Glass | 40.41 ± 0.52
23.44 K, Crystal | 38.11 ± 0.49
24.02 K, Glass | 42.79 ± 0.54
24.48 K, Crystal | 40.68 ± 0.51
25.08 K, Glass | 45.25 ± 0.56
25.54 K, Crystal | 43.24 ± 0.54
26.16 K, Glass | 47.65 ± 0.58
26.63 K, Crystal | 45.57 ± 0.56
27.26 K, Glass | 50.09 ± 0.6
27.74 K, Crystal | 48.13 ± 0.58
28.38 K, Glass | 52.99 ± 0.63
28.86 K, Crystal | 51.61 ± 0.61
29.5 K, Glass | 56.69 ± 0.66
29.99 K, Crystal | 54.09 ± 0.35
30.63 K, Glass | 57.45 ± 0.3
31.12 K, Crystal | 55.63 ± 0.29
31.76 K, Glass | 60.08 ± 0.31
32.25 K, Crystal | 58.38 ± 0.31
32.9 K, Glass | 63.09 ± 0.33
33.39 K, Crystal | 61.18 ± 0.32
34.06 K, Glass | 65.62 ± 0.34
34.56 K, Crystal | 63.78 ± 0.33
35.25 K, Glass | 68.43 ± 0.34
35.74 K, Crystal | 66.5 ± 0.34
36.45 K, Glass | 70.84 ± 0.35
36.95 K, Crystal | 69.15 ± 0.35
37.67 K, Glass | 73.54 ± 0.36
38.17 K, Crystal | 71.7 ± 0.36
38.9 K, Glass | 75.9 ± 0.37
39.4 K, Crystal | 74.01 ± 0.37
40.15 K, Glass | 78.39 ± 0.38
40.66 K, Crystal | 76.39 ± 0.38
41.41 K, Glass | 80.76 ± 0.39
41.94 K, Crystal | 79 ± 0.39
42.68 K, Glass | 83.53 ± 0.4
43.23 K, Crystal | 81.44 ± 0.4
43.93 K, Glass | 85.97 ± 0.41
44.51 K, Crystal | 83.92 ± 0.41
45.19 K, Glass | 88.07 ± 0.42
45.78 K, Crystal | 86.54 ± 0.42
46.45 K, Glass | 90.22 ± 0.43
47.06 K, Crystal | 89.06 ± 0.43
47.71 K, Glass | 93.04 ± 0.44
48.33 K, Crystal | 91.12 ± 0.43
48.97 K, Glass | 95.25 ± 0.45
49.6 K, Crystal | 94.6 ± 0.45
50.23 K, Glass | 98.01 ± 0.46
50.87 K, Crystal | 97.15 ± 0.46
